In PubChem BioAssay AID1919001 (Molecular Pharmacology Branch, DTP, NCI, 2023):
pIC50: −log10 of the molar value.

Tested on: 699152-130-R-J1-PDC complex spheroid growth
Experiment: Anticancer human tumor 699152-130-R-J1-PDC patient-derived pancreatic carcinoma cell line growth inhibition [AhR]
Conditions: for pIC50: curve of first compound; for viability, T/C: stronger effect = lower value
Excerpt: Multicellular complex tumor spheroid response to aryl hydrocarbon receptor antagonists in combination with a variety of drugs and investigational agents in selected tumor cell lines
The current study was undertaken to assess response to aryl hydrocarbon receptor antagonists in combination with standard-of-care drugs and investigational agents in solid tumor complex spheroid models. Complex spheroids include a stromal component modeled by human endothelial cells (HUVEC) and fibroblasts modeled by human mesenchymal stem cells (MSCs). The concentration ranges selected for each drug and investigational agent were based upon clinically achievable concentrations if the clinical Cmax of the agent was known.
Compounds. The drugs and investigational agents: BAY 2416964 (NSC825713), GNF351 (NSC835774), CH-223191 (NSC835775), CPI-455 (NSC825282), aza-TdCyd (NSC777586), decitabine (NSC127716), belinostat (NSC758774), entinostat (NSC756642), pevonedistat (NSC761192), tazemetostat (NSC777109), talazoparib (NSC765396), olaparib (NSC753686), selinexor (NSC780203), nedisertib (M3814, NSC802822), bortezomib (NSC756655), venetoclax (NSC766270), doxorubicin (NSC123127), elimusertib (BAY189344, NSC800525), ceralasertib (AZD6738, NSC777638), TAK-243 (NSC785004), alisertib (NSC759677), etoposide (NSC141540), topotecan (NSC609699), eribulin (NSC707389), gemcitabine (NSC613327), carboplatin (NSC241240), cisplatin (NSC119875), and SN-38 (NSC673596) were obtained from the National Cancer Institute (NCI) Developmental Therapeutics Program Chemical Repository (32). The FDA-approved anticancer drug set is available from the Developmental Therapeutics Program at https://dtp.cancer.gov/organization/dscb/obtaining/available plates.htm. […] The stock solutions were prepared in dimethyl sulfoxide (DMSO, Sigma-Aldrich, St. Louis, MO, cat. D2650), except for the platinum compounds which were prepared in saline (Quality Biological, Gaithersburg, MD, cat. 114-055-101), at 800-fold the tested concentration and stored at -70 degrees C prior to their use. All drugs and investigational agents were tested over a range starting from a high concentration at or near the clinical Cmax and decreasing in half-log increments. If the clinical Cmax for an agent had not been determined, the highest concentration tested was 10 microM (Table 1).
Cell Culture. All cells were maintained in an incubator at 37 degrees C and 5% CO2 with 95% humidity. The PDC lines were cultured according to standard operating procedures established by the NCI PDMR (https://pdmr.cancer.gov). Briefly, all PDCs were thawed and cultured in Matrigel-coated flasks prepared with a working solution of 1X Ham's F-12 nutrient mix, without supplementation (Invitrogen, Waltham, MA, cat. 11765054), 100 U/mL penicillin-streptomycin (Invitrogen, cat. 15140122), and 2.5% Matrigel (Corning Inc., Corning, NY, cat. 354248) for the first three passages. All PDCs were cultured in complete DMEM/F-12 media containing advanced DMEM/F-12 (Invitrogen, cat. 12634028), 4.9% defined fetal bovine serum, heat inactivated (HyClone Laboratories Inc., Logan, UT, cat. SH30070.03HI), 389 ng/mL hydrocortisone (Sigma-Aldrich, cat. H4001), 9.7 ng/mL human EGF recombinant protein (Invitrogen, cat. PHG0313), 23.4 microg/mL adenine (Sigma-Aldrich, cat. A2786), 97.3 U/mL penicillin-streptomycin (Invitrogen, cat. 15140122), 1.9 mM L-glutamine (Invitrogen, cat. 25030081), and 9.7 microM Y-27632 dihydrochloride (Tocris Bioscience, Bristol, United Kingdom, cat. 1254). The PDCs were cultured in complete DMEM/F12 media without 10 microM Y-27632 dihydrochloride for at least two passages prior to the screen. The established cell lines NCI-H1341 and […] were cultured in DMEM/F-12, HEPES (Invitrogen, cat. 11330032), 5% defined fetal bovine serum (HyClone Laboratories Inc., cat. SH30070.03), ITS premix universal culture supplement [insulin (5 microg/mL), transferrin (5 microg/mL), and selenious acid (5 ng/mL)] […]
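Note: compound exposure lasted 7 days after spheroids had grown for 3 days.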

CCN(c1cc(-c2ccc(CN3CCOCC3)cc2)cc(C(=O)NCc2c(C)cc(C)[nH]c2=O)c1C)C1CCOCC1 + CC(CO)NC(=O)c1cc(-c2ccc(Cl)cc2)nn(-c2cnn(C)c2)c1=O
pIC50 (second compound 0.1 µM): < 5.52
pIC50 (second compound 0.316 µM): < 5.52
pIC50 (second compound 1 µM): < 5.52
pIC50 (second compound 3.16 µM): < 5.52
pIC50 (second compound 10 µM): < 5.52
viability, T/C (second compound 0.1 µM, first compound 0.00949 µM): 97.8%
viability, T/C (second compound 0.1 µM, first compound 0.03 µM): 105%
viability, T/C (second compound 0.1 µM, first compound 0.0949 µM): 99.2%
viability, T/C (second compound 0.1 µM, first compound 0.3 µM): 96.2%
viability, T/C (second compound 0.1 µM, first compound 0.949 µM): 100%
viability, T/C (second compound 0.1 µM, first compound 3 µM): 102%
viability, T/C (second compound 0.316 µM, first compound 0.00949 µM): 107%
viability, T/C (second compound 0.316 µM, first compound 0.03 µM): 99.4%
viability, T/C (second compound 0.316 µM, first compound 0.0949 µM): 96.6%
viability, T/C (second compound 0.316 µM, first compound 0.3 µM): 94.5%
viability, T/C (second compound 0.316 µM, first compound 0.949 µM): 94.6%
viability, T/C (second compound 0.316 µM, first compound 3 µM): 99.4%
viability, T/C (second compound 1 µM, first compound 0.00949 µM): 105%
viability, T/C (second compound 1 µM, first compound 0.03 µM): 106%
viability, T/C (second compound 1 µM, first compound 0.0949 µM): 108%
viability, T/C (second compound 1 µM, first compound 0.3 µM): 97.3%
viability, T/C (second compound 1 µM, first compound 0.949 µM): 99.4%
viability, T/C (second compound 1 µM, first compound 3 µM): 111%
viability, T/C (second compound 3.16 µM, first compound 0.00949 µM): 97.1%
viability, T/C (second compound 3.16 µM, first compound 0.03 µM): 89.1%
viability, T/C (second compound 3.16 µM, first compound 0.0949 µM): 104%
viability, T/C (second compound 3.16 µM, first compound 0.3 µM): 91.2%
viability, T/C (second compound 3.16 µM, first compound 0.949 µM): 83.6%
viability, T/C (second compound 3.16 µM, first compound 3 µM): 95.1%
viability, T/C (second compound 10 µM, first compound 0.00949 µM): 93.9%
viability, T/C (second compound 10 µM, first compound 0.03 µM): 92.2%
viability, T/C (second compound 10 µM, first compound 0.0949 µM): 95.1%
viability, T/C (second compound 10 µM, first compound 0.3 µM): 85%
viability, T/C (second compound 10 µM, first compound 0.949 µM): 86.5%
viability, T/C (second compound 10 µM, first compound 3 µM): 87.5%

COc1cccc2c1C(=O)c1c(O)c3c(c(O)c1C2=O)CC(O)(C(=O)CO)CC3OC1CC(N)C(O)C(C)O1 (stereo not given) + CC(CO)NC(=O)c1cc(-c2ccc(Cl)cc2)nn(-c2cnn(C)c2)c1=O
pIC50 (second compound 0.1 µM): 6.34
pIC50 (second compound 0.316 µM): 6.42
pIC50 (second compound 1 µM): 6.34
pIC50 (second compound 3.16 µM): 6.43
pIC50 (second compound 10 µM): 6.49
viability, T/C (second compound 0.1 µM, first compound 0.0316 µM): 71.2%
viability, T/C (second compound 0.1 µM, first compound 0.1 µM): 86.7%
viability, T/C (second compound 0.1 µM, first compound 0.316 µM): 56.8%
viability, T/C (second compound 0.1 µM, first compound 1 µM): 29.1%
viability, T/C (second compound 0.1 µM, first compound 3.16 µM): 1.94%
viability, T/C (second compound 0.1 µM, first compound 10 µM): 11.6%
viability, T/C (second compound 0.316 µM, first compound 0.0316 µM): 83.2%
viability, T/C (second compound 0.316 µM, first compound 0.1 µM): 74.2%
viability, T/C (second compound 0.316 µM, first compound 0.316 µM): 56%
viability, T/C (second compound 0.316 µM, first compound 1 µM): 21.6%
viability, T/C (second compound 0.316 µM, first compound 3.16 µM): 2.1%
viability, T/C (second compound 0.316 µM, first compound 10 µM): 11.6%
viability, T/C (second compound 1 µM, first compound 0.0316 µM): 70.4%
viability, T/C (second compound 1 µM, first compound 0.1 µM): 72.7%
viability, T/C (second compound 1 µM, first compound 0.316 µM): 64.1%
viability, T/C (second compound 1 µM, first compound 1 µM): 20.7%
viability, T/C (second compound 1 µM, first compound 3.16 µM): 2.66%
viability, T/C (second compound 1 µM, first compound 10 µM): 12.9%
viability, T/C (second compound 3.16 µM, first compound 0.0316 µM): 68.1%
viability, T/C (second compound 3.16 µM, first compound 0.1 µM): 69.9%
viability, T/C (second compound 3.16 µM, first compound 0.316 µM): 56.2%
viability, T/C (second compound 3.16 µM, first compound 1 µM): 9.03%
viability, T/C (second compound 3.16 µM, first compound 3.16 µM): 8.71%
viability, T/C (second compound 3.16 µM, first compound 10 µM): 15.1%
viability, T/C (second compound 10 µM, first compound 0.0316 µM): 73.4%
viability, T/C (second compound 10 µM, first compound 0.1 µM): 69.3%
viability, T/C (second compound 10 µM, first compound 0.316 µM): 51.1%
viability, T/C (second compound 10 µM, first compound 1 µM): 2.91%
viability, T/C (second compound 10 µM, first compound 3.16 µM): 5.62%
viability, T/C (second compound 10 µM, first compound 10 µM): 12.8%
